Test results from patent US9718809B2, “Bisarylsulfonamides useful in the treatment of inflammation and cancer” (Kancera AB, priority 2011, dated 2017).
Where a name gives a salt, the structure may show the parent alone.

Tested on: F-2,6-P2 in PANC-1 cells
Assay: Quantification of F-2,6-P2 (Van Schaftingen coupled enzyme assay) in PANC-1 cells
Format: cell-based, human
Conditions: Homo sapiens; PANC-1 cells; read-out: IC50 based on quantification of F-2,6-P2
From the text: A method for quantification of F-2,6-P2 has been described by Van Schaftingen et al. (1982) Eur. J. Biochem. 129, 191-5. This sensitive assay is based on the potent activation of pyrophosphate dependent phosphofructokinase-1 (PPi-PFK) from potato tubers by F-2,6-P2. The use of a series of coupled enzymes leads to a consumption of NADH (nicotinamide adenine dinucleotide) that can be followed spectrophotometrically (an updated protocol is available in Van Schaftingen, (1984) Methods of Enzymatic Analysis (Bergmeyer, H. U., ed.), 3rd edn., vol. 6, pp. 335-341, Verlag Chemie, Weinheim). A protocol for measurements in 96-well microtiter plate format is also available (Bruni et al., (1989) Anal. Biochem. 178, 324-6).
The levels of F-2,6-P2 have been determined using the van Shaftingen assay as described in the protocol below, in six different cancer cell lines endogenously expressing varying levels of the different isoforms of PFK-2/BPase-2 (MCF-7, PANC-1, NUGC-3, SW480, SW620 and MIA PaCa-2). All reagents were purchased from commercial sources or prepared in-house.
Cell line B (PANC-1, human pancreatic carcinoma cell line): PANC-1 cells (ATCC-CRL-1469), lot. no. 58564651. Cells were seeded at a concentration of ˜250 000 cells/mL in 100 μL growth medium (˜25 000 cells/well).
Growth medium (cell lines B-F): Dulbecco's Modified Eagle's Medium, DMEM, VWR, LONZ12-604F; 10% FBS, Invitrogen, 10270-106.
Starvation medium (cell lines A-F): DMEM/F12 without phenol red and glucose free, SVA, 991373; 0.25% FBS, Invitrogen, 10270-106.
Induction medium (cell lines A-F): DMEM/F12 without phenol red and glucose free, SVA, 991373; 0.25% FBS, Invitrogen, 10270-106 (same as starvation medium).
Cells were seeded in 96-well Corning Costar tissue culture plates (CLS3595, Sigma-Aldrich) using the concentrations specified above for the different cell lines A-F and incubated over night at 37° C. and 5% CO2. Row A in the plate was left empty and the cell lines added to rows B-H. Next day the growth medium was discarded and replaced with 100 μL starvation medium. The plates were incubated for 18 h at 37° C. and 5% CO2. After 18 h of starvation the cells were induced with 100 μL compound or control solutions. Compounds were either tested in two concentrations (50 μM and 10 μM) or in dose response curves starting from 50 μM. The final DMSO concentration in assay plates was 0.5%. Also a dose response curve of a reference inhibitor was included in row H on each plate. All compounds were tested in duplicate plates. Compounds (in 96 well CLS 3365, Sigma-Aldrich plates) were serial diluted in DMSO from 10 mM compound DMSO stock solutions with Janus (automated liquid handling workstation from PerkinElmer). Five μL were transferred to a Greiner deep well plate (736-0155, VWR) with 495 μL starvation medium. The final start concentration of compounds in the dilution plate was 100 μM, 1% DMSO. For compounds tested as single points, 10 mM compound solutions were diluted five fold in DMSO to 2 mM, followed by the transfer of 5 μL to separate dilution plates with 495 μL starvation medium. The final concentrations of compounds in these dilution plates were 100 or 20 μM, respectively, and final concentration of DMSO was 1%. The plates were incubated at 37° C. and 5% CO2 for 1 h, followed by the addition of 10 μL 20 mM D-glucose in starvation medium. Controls, with and without 1 mM glucose, were included in row B. The final assay volume was 210 μL per well. After 2 h of incubation at 37° C. and 5% CO2, the supernatants were discarded and the cells lysed by the addition of 25 μL 250 mM NaOH. The plates were incubated at 37° C. and 5% CO2 for 5 min followed by an addition of 75 μL MilliQ dH2O. The supernatants were further diluted with 210 μL MilliQ dH2O to a final concentration of 20 mM NaOH. 200 μL were transferred to NUNC 96-well plates (7322661, VWR) and the plates were sealed and stored at −20° C. until analysis. […]

| IC50 [µM] | SMILES |
| --- | --- |
| 1.9 | COC(=O)c1ccc(NS(=O)(=O)c2cnc(Cl)c(Br)c2)cc1O [Example 14, Methyl 4-{[(5-bromo-6-chloropyridin-3-yl)sulfonyl]amino}-2-hydroxybenzoate] |
| 1.4 | COC(=O)c1ccc(NS(=O)(=O)Cc2ccc(-c3ccccc3O)cc2)cc1O [Example 126, Methyl 2-hydroxy-4-({[(2′-hydroxybiphenyl-4-yl)methyl]sulfonyl}amino)benzoate] |
| 1.7 | COC(=O)c1ccc(NS(=O)(=O)c2cc(-c3ccc4c(c3)CCO4)cc(C(F)(F)F)c2)cc1O [Example 116, Methyl 4-({[3-(2,3-dihydro-1-benzofuran-5-yl)-5-(trifluoromethyl)phenyl]sulfonyl}amino)-2-hydroxybenzoate] |
| 10.4 | COC(=O)c1ccc(NS(=O)(=O)Cc2ccc(Br)cc2)cc1O [Example 24, Methyl 4-{[(4-bromobenzyl)sulfonyl]amino}-2-hydroxybenzoate] |
| 0.8 | Cc1cc(NCCCOC(=O)c2ccc(NS(=O)(=O)c3cccc(-c4cc(F)ccc4O)c3)cc2O)no1 [Example 232, 3-[(5-Methylisoxazol-3-yl)amino]propyl 4-{[(5′-fluoro-2′-hydroxybiphenyl-3-yl)sulfonyl]amino}-2-hydroxybenzoate trifluoroacetate] |
| 2.4 | COC(=O)c1ccc(NS(=O)(=O)c2cccc(-c3ccc(OC(F)(F)F)cc3)c2)cc1O [Example 99, Methyl 2-hydroxy-4-({[4′-(trifluoromethoxy)biphenyl-3-yl]sulfonyl}amino)benzoate] |
| 5.7 | COC(=O)c1ccc(NS(=O)(=O)c2cc(Br)c(F)cc2F)cc1O [Example 49, Methyl 4-{[(5-bromo-2,4-difluorophenyl)sulfonyl]amino}-2-hydroxybenzoate] |
| 8.9 | COC(=O)c1ccc(NS(=O)(=O)c2cc(Cl)c(-c3ccccc3O)s2)cc1O [Example 206, Methyl 4-({[4-chloro-5-(2-hydroxyphenyl)thiophen-2-yl]sulfonyl}amino)-2-hydroxybenzoate] |
| 4.8 | COC(=O)c1ccc(NS(=O)(=O)c2ccc(F)c(Cl)c2)cc1O [Example 32, Methyl 4-{[(3-chloro-4-fluorophenyl)sulfonyl]amino}-2-hydroxybenzoate] |
| 4.9 | COC(=O)c1ccc(NS(=O)(=O)c2cnc(Cl)c(-c3ccc4c(c3)CCO4)c2)cc1O [Example 155, Methyl 4-({[6-chloro-5-(2,3-dihydro-1-benzofuran-5-yl)pyridin-3-yl]sulfonyl}amino)-2-hydroxybenzoate] |
| 0.6 | O=C(OCCCN1CCOCC1)c1ccc(NS(=O)(=O)c2cc(-c3cc(F)ccc3O)c(Cl)s2)cc1O [Example 213, 3-Morpholin-4-ylpropyl 4-({[5-chloro-4-(5-fluoro-2-hydroxyphenyl)-2-thienyl]sulfonyl}amino)-2-hydroxybenzoate trifluoroacetate] |
| 5.4 | COC(=O)c1ccc(NS(=O)(=O)c2cccc(-c3cccc(C(N)=O)c3)c2)cc1O [Example 113, Methyl 4-{[(3′-carbamoylbiphenyl-3-yl)sulfonyl]amino}-2-hydroxybenzoate] |
| 5.2 | O=C(OC1CCOC1)c1ccc(NS(=O)(=O)c2cc(Cl)sc2Cl)cc1O (centres unmarked) [Example 67, Tetrahydrofuran-3-yl 4-{[(2,5-dichloro-3-thienyl)sulfonyl]amino}-2-hydroxybenzoate] |
| 1.6 | COC(=O)c1ccc(NS(=O)(=O)c2cccc(-c3ccccc3)c2)cc1O [Example 87, Methyl 4-[(biphenyl-3-ylsulfonyl)amino]-2-hydroxybenzoate] |
| 1.5 | COC(=O)c1ccc(NS(=O)(=O)c2cccc(N3CCCCC3)c2)cc1O [Example 142, Methyl 2-hydroxy-4-({[3-(piperidin-1-yl)phenyl]sulfonyl}amino)benzoate] |
| 12.3 | COC(=O)c1ccc(NS(=O)(=O)c2cccc(Br)c2)cc1O [Example 5, Methyl 4-{[(3-bromophenyl)sulfonyl]amino}-2-hydroxybenzoate] |
| 0.8 | O=C(OCc1ccccc1)c1ccc(NS(=O)(=O)c2cc(Cl)c(Cl)s2)cc1O [Example 71, Benzyl 4-{[(4,5-dichloro-2-thienyl)sulfonyl]amino}-2-hydroxybenzoate] |
| 8.4 | COC(=O)c1ccc(NS(=O)(=O)c2cccc(-c3ccc(C(=O)N(C)C)cc3)c2)cc1O [Example 101, Methyl 4-({[4′-(dimethylcarbamoyl)biphenyl-3-yl]sulfonyl}amino)-2-hydroxybenzoate] |
| 1.7 | COC(=O)c1ccc(NS(=O)(=O)c2cc(Cl)cc(Cl)c2)cc1O [Example 22, Methyl 4-{[(3,5-dichlorophenyl)sulfonyl]amino}-2-hydroxybenzoate] |
| 3.1 | COC(=O)c1ccc(NS(=O)(=O)c2c(Cl)sc(Cl)c2C)cc1O [Example 53, Methyl 4-{[(2,5-dichloro-4-methyl-3-thienyl)sulfonyl]amino}-2-hydroxybenzoate] |
| 6.7 | COC(=O)c1ccc(NS(=O)(=O)c2cccc(-c3ccncc3)c2)cc1O [Example 89, Methyl 2-hydroxy-4-{[(3-pyridin-4-ylphenyl)sulfonyl]amino}benzoate trifluoroacetate] |

Same assay, conditions: at 12.5-50 μM in PANC-1 cells

| SMILES | inhibition (F-2,6-P2 levels) [%] |
| --- | --- |
| O=C(O)C(F)(F)F.O=C(OCCOc1ccc(Cl)nc1)c1ccc(NS(=O)(=O)c2cc(Cl)c(Cl)s2)cc1O [Example 226, 2-[(6-Chloropyridin-3-yl)oxy]ethyl 4-{[(4,5-dichloro-2-thienyl)sulfonyl]amino}-2-hydroxybenzoate trifluoroacetate] | ≥ 50 |
| COC(=O)c1ccc(NS(=O)(=O)Cc2cccc(Br)c2)cc1O [Example 23, Methyl 4-{[(3-bromobenzyl)sulfonyl]amino}-2-hydroxybenzoate] | ≥ 50 |
| COC(=O)c1ccc(NS(=O)(=O)c2cccc(-c3ccc(C(F)(F)F)cc3)c2)cc1O [Example 100, Methyl 2-hydroxy-4-({[4′-(trifluoromethyl)biphenyl-3-yl]sulfonyl}amino)benzoate] | ≥ 50 |
| COC(=O)c1ccc(NS(=O)(=O)c2cncc(-c3cccc(OC)c3F)c2)cc1O [Example 130, Methyl 4-({[5-(2-fluoro-3-methoxyphenyl)pyridin-3-yl]sulfonyl}amino)-2-hydroxybenzoate] | ≥ 50 |
| CN1CCN(CCCOC(=O)c2ccc(NS(=O)(=O)c3cc(Cl)c(Cl)s3)cc2O)CC1.O=C(O)C(F)(F)F [Example 65, 3-(4-Methylpiperazin-1-yl)propyl 4-{[(4,5-dichlorothiophen-2-yl)sulfonyl]amino}-2-hydroxybenzoate trifluoroacetate] | ≥ 50 |
| COC(=O)c1ccc(NS(=O)(=O)c2ccc(Cl)cc2)cc1O [Example 42, Methyl 4-{[(4-chlorophenyl)sulfonyl]amino}-2-hydroxybenzoate] | ≥ 50 |
| COC(=O)c1ccc(NS(=O)(=O)c2c(C)cccc2Cl)cc1O [Example 43, Methyl 4-{[(2-chloro-6-methylphenyl)sulfonyl]amino}-2-hydroxybenzoate] | ≥ 50 |
| COC(=O)c1ccc(NS(=O)(=O)c2cccc(OC)c2)cc1O [Example 121, Methyl 2-hydroxy-4-{[(3-methoxyphenyl)sulfonyl]amino}benzoate] | ≥ 50 |
